Measured values from patent US20120149645A1, “COMPOSITIONS AND MODULATION OF MYOCYTE ENHANCER FACTOR 2 (MEF2)” (EMORY UNIVERSITY, priority 2010, published 2012).

Experiments:
[1] = test system: mitochondrial MEF2D and ND6; test: MPTP mouse model, western blotting of mitochondria purified from brain SNpc; format: in vivo; conditions: chronic intraperitoneal MPTP vs saline treated controls
TH+ neurons in SNpc = test: MPTP mouse model of PD, TH immunohistochemistry in SNpc; conditions: mice, chronic MPTP exposure; SNpc and striatum
MEF2D (1-91) = MEF2D (1-91) (UniProt Q63943 Q63943:1-91); test: EMSA; 10 ng protein, on ice 30 min; conditions: tags: GST fusion (N-terminal GST); label: 32P
MEF2D (1-91), sequence (Q63943 1-91, one chain of several): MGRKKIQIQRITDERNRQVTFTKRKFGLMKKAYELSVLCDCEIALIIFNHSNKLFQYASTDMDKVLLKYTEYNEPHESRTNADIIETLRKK

Question: For `CN1CC=C(c2ccccc2)CC1` [MPTP, 1-methyl 4-phenyl 1,2,3,6-tetrahydropyridine], which “level of ND6 protein in mouse brain” value [1] is on record?
Answer: clear decline

Question: What about the “mitochondrial MEF2D in mouse brain” value [1] of the same molecule?
Answer: significant reduction

Question: And the “immunohistochemical signal for tyrosine hydroxylase (TH)” value (TH+ neurons in SNpc)?
Answer: loss

B1: ND6 MEF2 site probe WT (dsDNA)
DNA 1: CTAAACCCCCATAAATAGGAGAAGGCTT
DNA 2: AAGCCTTCTCCTATTTATGGGGGTTTAG
Question: Does B1 bind (MEF2D (1-91))?
Answer: binds
